From patent US20240024273A1, “TOPICAL ADMINISTRATION OF 2-(DIETHYLAMINO)ETHYL 2-(4-ISOBUTYLPHENYL)PROPRIONATE FOR TREATMENT OF DISEASES” (TECHFIELDS PHARMA CO., LTD., priority 2020, published 2024)
Like-named read-outs stand apart in the source and are kept apart here.

Legend:
Sprague Dawley rats = assay: Behavioral effects, functional observational battery; type: in vivo; conditions: single dermal dose 50, 250, 750 mg/kg
dogs = assay: Cardiovascular telemetry study in the unrestrained conscious non-naïve dog; type: in vivo; conditions: dermal 10, 25 and 50 mg/kg; up to 48 hours
[1] = Acute dermal maximum tolerated dose study; type: in vivo, Rats; conditions: both sexes, rat, in vivo, topical or ocular, 1000 mg/kg; once, dermal; male and female rats
rats = assay: Acute dermal maximum tolerated dose study; type: in vivo; conditions: single dermal dose 1000 mg/kg
[2] = 28-day GLP repeated dermal dose toxicity and toxicokinetics study; parameters: species or system Rats; conditions: rat, in vivo; for Cmax / AUC(0-t): topical, 100 mg/kg/day, Day 28; for AUC(0-t): read-out: AUC0-24 h
[3] = test system: Mild to Moderate Osteoarthritis of the Knee; assay: Phase 2 study: physician's global assessment of disease status; type: in vivo, human
Excerpt: 3.9.3. Exploratory Efficacy Endpoints: • 1. Subject's global assessment of disease status of the target knee at 2, 4, 8, and 12 weeks of treatment; • 2. Investigator's global assessment of disease status of the target knee at 2, 4, 8, and 12 weeks of treatment; • 3. Subject's global assessment of response to therapy of the target knee at 2, 4, 8, and 12 weeks of treatment; • 4. Investigator's global assessment of response to therapy of the target knee at 2, 4, 8, and 12 weeks of treatment; • 5. Change from Baseline over time in VAS pain scores for the target knee from Daily Diary data; • 6. Amount of rescue medication (acetaminophen) consumed per day for target knee pain.
Data for the exploratory efficacy endpoints will be summarized using descriptive statistics.

[4] = test system: Subjects with Mild to Moderate Osteoarthritis of the Knee; assay: Phase 2 study: safety; type: in vivo, human
Excerpt: Safety assessments will be performed at each visit and will include assessment of AEs, vital signs (blood pressure, pulse rate, and oral temperature), clinical laboratories, physical examination, skin irritation, and electrocardiograms (ECGs) as indicated in the study flow chart, Table 14.
Safety assessments will include AEs, vital signs (blood pressures, pulse rate, and oral temperature), clinical laboratories, physical examination, skin irritation, and ECGs at various time points during the study as indicated in the study flow chart.
Adverse events of interest include: local skin reactions around the treated knee(s), upper stomach pain, GI bleeding, serious cardiovascular side effects (e.g., thrombotic events, myocardial infarction, or stroke), jaundice, elevated liver function tests, and nausea.
Safety analyses will be conducted on the SAS. Safety parameters will be listed and summarized using standard descriptive statistics, as appropriate. No formal statistical analyses are planned.

Osteoarthritis = assay: Phase 2 study: effect of treatment on sign and symptoms of osteoarthritis at 12 weeks (re-analysis, all patients taken as active); type: in vivo, human; conditions: for difference from placebo, sign and symptoms of OA: placebo effect assumed −6.1; for Mean ± SEM WOMAC Osteoarthritis Index Composite Score Change from Baselines / Mean ± SEM WOMAC Osteoarthritis Index Composite Score Change from Baselines, adjusted by […] of the testing drug amount: scale 0 to 100
Excerpt: (William G. Bensen, Justus J. Fiechtner, James 1. McMillen, et. al. Treatment of Osteoarthritis with Celecoxib. Mayo Clin Proc, November 1999. Vol 74, 1095-1105.)

[5] = Second Phase 2 study: plasma ibuprofen pharmacokinetics; type: in vivo, human; conditions: low dose levels (below 35 mg/day)
Procedure: All subjects enrolled at designated sites that have the capability to keep subjects overnight will be included in the PK subgroup until PK samples for 40 subjects per treatment group have been collected. […] At the Week 12/EOS visit, PK blood samples can be collected predose and at 2, 4, and 6 hours postdose. Subjects will only receive the morning dose at the Week 12/EOS visit.
Thus only ibuprofen was analyzed in this trial.

[6] = In vitro half-life in plasma; type: in vitro ADME
[7] = pig, in vivo, topical or ocular, 9 mg/kg

For `CCN(CC)CCOC(=O)C(C)c1ccc(CC(C)C)cc1` (centres unmarked) [2-(diethylamino)ethyl 2-(4-isobutylphenyl)propionate], the “neurobehavioral changes (FOB test)” value (Sprague Dawley rats) was 250, and 750 mg/kg of ibuprofenamine were not associated with any, the “qualitative ECG parameters” value (dogs) was 25, and 50 mg/kg of ibuprofenamine and vehicle in dogs. There were no effects and the MTD [1] was > 1000 mg/kg. The tolerability (rats) was 2-(4-isobutylphenyl)propionate to rats at 1000 mg/kg was well tolerated, the NOAEL at 28 days ([2]; both sexes, topical or ocular, 28-day dermal, male and female, read-out: systemic NOAEL) was 100 mg/kg/day and the Cmax ([2]; female, females) was 46800 ng/mL. For the same molecule, the AUC(0-t) ([2]; female, females) was 422 µg·h/mL, the Cmax ([2]; male, males) was 47400 ng/mL and the AUC(0-t) ([2]; male, males) was 165 µg·h/mL. For the same molecule, the NOAEL at 28 days ([2]; ulcers at application site at ≥100 mg/kg/day, read-out: local NOAEL) was 25 mg/kg/day, the “Physician's Global Assessment of Disease Status: Improved (percentage of patients who improved by 2 grades or more from baseline, or from 1 to 0)” value ([3]; 8.75 mg/knee (BID)) was 10.5% and the “Physician's Global Assessment of Disease Status: Worsened (percentage of patients who worsened by 2 grades or more from baseline, or from 3 to 4)” value ([3]; 8.75 mg/knee (BID)) was 1.8%. The “patients improved by 2 grades or more from baseline (physician's global assessment)” value ([3]; 8.75 mg/knee (BID)) was 10.5%, the “Physician's Global Assessment of Disease Status: Improved (percentage of patients who improved by 2 grades or more from baseline, or from 1 to 0)” value ([3]; 17.5 mg/knee (BID)) was 35.6% and the “Physician's Global Assessment of Disease Status: Worsened (percentage of patients who worsened by 2 grades or more from baseline, or from 3 to 4)” value ([3]; 17.5 mg/knee (BID)) was 1.7%. For the same molecule, the “Physician's Global Assessment of Disease Status: Improved (percentage of patients who improved by 2 grades or more from baseline, or from 1 to 0)” value ([3]; 35 mg/knee (BID)) was 30.9%, the “Physician's Global Assessment of Disease Status: Worsened (percentage of patients who worsened by 2 grades or more from baseline, or from 3 to 4)” value ([3]; 35 mg/knee (BID)) was 0% and the safety and tolerability ([4]; all three doses (8.75, 17.5, 35 mg/knee BID)) was “appeared to be safe and were generally well tolerated”. For the same molecule, the “gastrointestinal disorder incidences (very mild)” value ([4]; whole study) was 12 incidences, the skin irritation incidences ([4]; whole study, total) was 8 incidences and the “difference from placebo, sign and symptoms of OA” value (shortened to “difference from placebo … of OA”) (Osteoarthritis; 8.75 mg BID, Week 12) was −13.4. For the same molecule, the “adjusted best result relative to Celecoxib (100 mg, BID)” value (Osteoarthritis; 17.5 mg BID) was 6 times, the “best result relative to Celecoxib (100 mg, BID)” value (Osteoarthritis; 17.5 mg BID) was 3 times and the “difference from placebo, adjusted by […] of the testing drug” value (Osteoarthritis; 17.5 mg BID, Week 12) was −43.5. The “difference from placebo … of OA” value (Osteoarthritis; 17.5 mg BID, Week 12) was −22.8, the “difference from placebo … of OA” value (Osteoarthritis; 35 mg BID, Week 12) was −16.9 and the “Mean ± SEM WOMAC Osteoarthritis Index Composite Score Change from Baselines” value (Osteoarthritis; 2 sprays/knee (8.75 mg, BID) transdermally, Follow-up (Week13)) was −18.4 ± 3.20. For the same molecule, the “Mean ± SEM WOMAC Osteoarthritis Index Composite Score Change from Baselines” value (Osteoarthritis; 2 sprays/knee (8.75 mg, BID) transdermally, Week 2) was −11.1 ± 2.50, the “Mean ± SEM WOMAC Osteoarthritis Index Composite Score Change from Baselines” value (Osteoarthritis; 2 sprays/knee (8.75 mg, BID) transdermally, Week 4) was −18.0 ± 2.50 and the “Mean ± SEM WOMAC Osteoarthritis Index Composite Score Change from Baselines” value (Osteoarthritis; 2 sprays/knee (8.75 mg, BID) transdermally, Week 8) was −18.1 ± 2.92. The “Mean ± SEM WOMAC Osteoarthritis Index Composite Score Change from Baselines” value (Osteoarthritis; 2 sprays/knee (8.75 mg, BID) transdermally, Week 12) was −19.5 ± 3.18, the “Mean ± SEM WOMAC Osteoarthritis Index Composite Score Change from Baselines, adjusted by […] of the testing drug amount” value (Osteoarthritis; 2 sprays/knee (8.75 mg, BID), Follow-up (Week 13)) was −31.6 ± 5.49 and the “Mean ± SEM WOMAC Osteoarthritis Index Composite Score Change from Baselines, adjusted by […] of the testing drug amount” value (Osteoarthritis; 2 sprays/knee (8.75 mg, BID), Week 2) was −19.0 ± 4.29. The “Mean ± SEM WOMAC Osteoarthritis Index Composite Score Change from Baselines, adjusted by […] of the testing drug amount” value (Osteoarthritis; 2 sprays/knee (8.75 mg, BID), Week 4) was −30.9 ± 4.29, the “Mean ± SEM WOMAC Osteoarthritis Index Composite Score Change from Baselines, adjusted by […] of the testing drug amount” value (Osteoarthritis; 2 sprays/knee (8.75 mg, BID), Week 8) was −31.0 ± 5.01 and the “Mean ± SEM WOMAC Osteoarthritis Index Composite Score Change from Baselines, adjusted by […] of the testing drug amount” value (Osteoarthritis; 2 sprays/knee (8.75 mg, BID), Week 12) was −33.4 ± 5.45. For the same molecule, the “Mean ± SEM WOMAC Osteoarthritis Index Composite Score Change from Baselines” value (Osteoarthritis; 4 sprays/knee (17.5 mg, BID) transdermally, Follow-up (Week13)) was −23.4 ± 3.52, the “Mean ± SEM WOMAC Osteoarthritis Index Composite Score Change from Baselines” value (Osteoarthritis; 4 sprays/knee (17.5 mg, BID) transdermally, Week 2) was −15.1 ± 2.89 and the “Mean ± SEM WOMAC Osteoarthritis Index Composite Score Change from Baselines” value (Osteoarthritis; 4 sprays/knee (17.5 mg, BID) transdermally, Week 4) was −21.3 ± 3.32. The “Mean ± SEM WOMAC Osteoarthritis Index Composite Score Change from Baselines” value (Osteoarthritis; 4 sprays/knee (17.5 mg, BID) transdermally, Week 8) was −24.8 ± 3.26, the “Mean ± SEM WOMAC Osteoarthritis Index Composite Score Change from Baselines” value (Osteoarthritis; 4 sprays/knee (17.5 mg, BID) transdermally, Week 12) was −28.9 ± 3.38 and the “Mean ± SEM WOMAC Osteoarthritis Index Composite Score Change from Baselines, adjusted by […] of the testing drug amount” value (Osteoarthritis; 4 sprays/knee (17.5 mg, BID), Follow-up (Week 13)) was −40.1 ± 6.04. The “Mean ± SEM WOMAC Osteoarthritis Index Composite Score Change from Baselines, adjusted by […] of the testing drug amount” value (Osteoarthritis; 4 sprays/knee (17.5 mg, BID), Week 2) was −25.9 ± 4.96, the “Mean ± SEM WOMAC Osteoarthritis Index Composite Score Change from Baselines, adjusted by […] of the testing drug amount” value (Osteoarthritis; 4 sprays/knee (17.5 mg, BID), Week 4) was −36.5 ± 5.69 and the “Mean ± SEM WOMAC Osteoarthritis Index Composite Score Change from Baselines, adjusted by […] of the testing drug amount” value (Osteoarthritis; 4 sprays/knee (17.5 mg, BID), Week 8) was −42.5 ± 5.59. The “Mean ± SEM WOMAC Osteoarthritis Index Composite Score Change from Baselines, adjusted by […] of the testing drug amount” value (Osteoarthritis; 4 sprays/knee (17.5 mg, BID), Week 12) was −49.6 ± 5.80, the “Mean ± SEM WOMAC Osteoarthritis Index Composite Score Change from Baselines” value (Osteoarthritis; 8 sprays/knee (35 mg, BID) transdermally, Follow-up (Week13)) was −22.1 ± 3.23 and the “Mean ± SEM WOMAC Osteoarthritis Index Composite Score Change from Baselines” value (Osteoarthritis; 8 sprays/knee (35 mg, BID) transdermally, Week 2) was −11.7 ± 2.88. The “Mean ± SEM WOMAC Osteoarthritis Index Composite Score Change from Baselines” value (Osteoarthritis; 8 sprays/knee (35 mg, BID) transdermally, Week 4) was −17.0 ± 2.96, the “Mean ± SEM WOMAC Osteoarthritis Index Composite Score Change from Baselines” value (Osteoarthritis; 8 sprays/knee (35 mg, BID) transdermally, Week 8) was −21.7 ± 3.28 and the “Mean ± SEM WOMAC Osteoarthritis Index Composite Score Change from Baselines” value (Osteoarthritis; 8 sprays/knee (35 mg, BID) transdermally, Week 12) was −23.0 ± 3.27. The “Mean ± SEM WOMAC Osteoarthritis Index Composite Score Change from Baselines, adjusted by […] of the testing drug amount” value (Osteoarthritis; 8 sprays/knee (35 mg, BID), Follow-up (Week 13)) was −37.9 ± 5.54, the “Mean ± SEM WOMAC Osteoarthritis Index Composite Score Change from Baselines, adjusted by […] of the testing drug amount” value (Osteoarthritis; 8 sprays/knee (35 mg, BID), Week 2) was −20.1 ± 4.94 and the “Mean ± SEM WOMAC Osteoarthritis Index Composite Score Change from Baselines, adjusted by […] of the testing drug amount” value (Osteoarthritis; 8 sprays/knee (35 mg, BID), Week 4) was −29.2 ± 5.08. The “Mean ± SEM WOMAC Osteoarthritis Index Composite Score Change from Baselines, adjusted by […] of the testing drug amount” value (Osteoarthritis; 8 sprays/knee (35 mg, BID), Week 8) was −37.2 ± 5.63, the “Mean ± SEM WOMAC Osteoarthritis Index Composite Score Change from Baselines, adjusted by […] of the testing drug amount” value (Osteoarthritis; 8 sprays/knee (35 mg, BID), Week 12) was −39.5 ± 5.61 and the “detectability of prodrug in plasma” value [5] was “cannot be detected in most of subjects' plasma”. For the same molecule, the “fraction metabolized to ibuprofen in any human tissue (except skin)” value [6] was > 99.9%, the half-life ([6]; in plasma, read-out: in vitro T1/2) was ~4 min and the “cartilage AUClast” value [7] was 23.91 µg·h/mL. The “muscle AUClast” value [7] was 35.89 µg·h/mL and the “plasma AUClast” value [7] was 1.516 µg·h/mL.
